Results from the NIST ThermoML archive (doi:10.1016/j.jct.2014.09.022).

Experiments:
[1] = mn = molality of the nth substance listed, in mol/kg; conditions: 298.15 K, 100 kPa, Liquid; for viscosity: Capillary tube (Ostwald / Ubbelohde) method; for mass density: Vibrating tube method
[2] = refractive index (Na D-line) (dimensionless); mn = molality of the nth substance listed, in mol/kg; conditions: 298.15 K, 100 kPa, Liquid, Standard Abbe refractometry
[3] = refractive index (Na D-line) (dimensionless); conditions: 298.15 K; 100 kPa; Liquid; Standard Abbe refractometry
[4] = 298.15 K, 100 kPa, Liquid

C(=NCCN=Cc1ccccn1)c1ccccn1 [N,N'-bis(2-pyridinylmethylene)-1,2-ethanediamine] + CC(=O)N(C)C
Conditions | mass density, [1] [kg/m3] | refractive index, [2] | viscosity, [1] [mPa·s]
m1 = 0.0471 | 937.73 | 1.4291 | 1.035
m1 = 0.091 | 939.12 | 1.43 | 1.069
m1 = 0.1327 | 940.31 | 1.4317 | 1.082
m1 = 0.1768 | 941.81 | 1.433 | 1.1

CC(=O)N(C)C [N,N-dimethylethanamide]
Conditions | refractive index
[3] | 1.4278

[4]
Conditions | mass density [kg/m3] | viscosity [mPa·s]
Capillary tube (Ostwald / Ubbelohde) method | – | 0.989
Vibrating tube method | 936.31 | –

CCCCCCn1cc[n+](C)c1.[Cl-] [1-hexyl-3-methylimidazolium chloride] + CC(=O)N(C)C
Conditions | mass density, [1] [kg/m3] | refractive index, [2] | viscosity, [1] [mPa·s]
m1 = 0.0226 | 936.94 | 1.4283 | 1.029
m1 = 0.0468 | 937.6 | 1.429 | 1.042
m1 = 0.06 | 937.96 | 1.4295 | 1.057
m1 = 0.0797 | 938.48 | 1.4297 | 1.072
m1 = 0.1002 | 939.02 | 1.43 | 1.087
m1 = 0.1216 | 939.55 | 1.4303 | 1.106
m1 = 0.141 | 940.04 | 1.4307 | 1.123
m1 = 0.1621 | 940.56 | 1.431 | 1.129
m1 = 0.1781 | 940.95 | 1.4312 | 1.137
m1 = 0.2012 | 941.49 | 1.432 | 1.142
